# In US20240197712A1, “TGF-BETA INHIBITION FOR IMMUNODEFICIENCY VIRUS REACTIVATION FROM LATENCY, ENHANCEMENT OF IMMUNODEFICIENCY VIRUS-SPECIFIC RESPONSES AND IMMUNODEFICIENCY VIRUS CURE” (Northwestern University, priority 2022, published 2024):
# Legend:
# [1] = test system: primary CD4+ T cells; test: Primary CD4+ T cell model of HIV-1 latency, p24 ICS; format: cell-based, human; conditions: primary CD4+ T cells infected with HIV ADA; PMA 100 ng/ml; TGF-β1 10 ng/ml or galunisertib 1 μM
# Experimental: Next, the impact of TGF-β1 on a primary model of HIV-1 latency was tested using freshly isolated CD4+ T cells. The experiment was based on the model by Berkhout and colleagues (50) with some modifications (FIG. 1F). Specifically, CD4+ T cells were isolated from HIV-1 uninfected, de-identified donor PBMC and activated them with PHA and IL-2 for 3 days before infection via spinoculation with HIV ADA. After extensive wash of the viral inoculum, cells were cultured 48 hrs in presence of T20 (enfuvirtide) to avoid viral spread beyond the cells with initial integrations. The overall initial infection achieved was very low despite the spinoculation step (˜0.1% of p24-gag+ cells, FIGS. 3A-3B).
# Blood from de-identified donors was obtained from the New York Blood Bank and used as source of CD4 T cells for the primary model of HIV latency in vitro. Total CD4+ T cells were isolated with the CD4 T cells isolation kit (Miltenyi) and activated with 5 μg/ml of PHA and 50 U/ml of IL-2 for 3 days. After washing out the PHA, cells were infected with 200TCID50 of HIV-ADA (NIH HIV Reagent Program) in 12 or 24 wells/plates and spinoculated at 1200 g for 2 hrs at 25° C. After additional 3 hrs of incubation at 37° C., viral inoculum was washed and cells plated in presence of T20 (Enfurtivide acetate salt, 1 μM NIH AIDS reagent program). […]
# [2] = test system: T and NK cells; test: High parameter flow cytometry of PBMC T and NK cells; format: in vivo, rhesus macaques
# Source text: Colorectal biopsy tissues were isolated by enzymatic digestion while LN biopsies were passed through a 70 μm cell strainer as described in (110). FlowJo vs 10.8 was use for both classical and high-dimensional analysis. PeacoQC, FlowtSNE and FlowSOM plug-ins were used with default settings. SwiftReg was used for normalization (113).
# Peripheral blood mononuclear cells (PBMCs) collected from 8 macaques at 7 time points spanning Cycle 1 to Cycle 4 (refer to Table 5) were employed for high-parameter flow cytometry staining. Cells from before and after cycle 1 and at the end of cycle 3 were used for Tfh/Treg assay. In both cases, cell fixation and permeabilization for intracellular staining were carried out using the FoxP3 Staining Buffer set (Thermo Fisher Scientific, Carlsbad, CA). The high-dimensional panel consisted of antibodies outlined in Table 4, catering to requirements for surface and intracellular staining, as well as viability assessment. Each antibody was individually titrated to ensure optimal staining conditions. Data acquisition was performed using the FACSymphony A5.2 Spectral Analyzer. Following data collection, spectral compensation was implemented utilizing FlowJo™ v10.8 Software (BD Life Sciences). 60,000 live singlet lymphocytes from each of samples was downsampled to prevent disproportionate representation by samples with higher cell counts, ensuring balanced subsequent analysis. To mitigate batch effects, we utilized the swiftReg Neighbor-Dependent Cluster Registration (NDCR) method available within the SWIFT package(112). This method effectively addresses batch variations while preserving the inherent biological diversity. […] Furthermore, we implemented the Peak Extraction and Cleaning Oriented Quality Control (PeacoQC) procedure (138) in FlowJo™ v10.8 to eliminate low-quality events arising from potential issues like clogs, speed fluctuations, and slow sample uptake. FlowSOM FlowJo plugin was employed for automated cell population identification, preceded by the utilization of Phenograph to obtain optimal cluster numbers for dimensional reduction, for the merged data of All Time points and BC1 vs AC4 merged data respectively. The Supplementary FIG. 29A heatmap illustrates the median fluorescence intensity (MFI) values for all markers across all clusters. A tSNE plot, generated in FlowJo™ using the markers employed in the FlowSOM analysis, is presented, with coloring based on the FlowSOM clustering or two specific time points, BC1 vs AC4 in FIG. 4G.
# [3] = test system: SIVmac251 or SIVmac239; test: Plasma viral load, SIV-infected ART-treated macaques, 1-2 weeks galunisertib; format: in vivo, rhesus macaques
# Experimental: Rhesus macaques (n=7) were infected with SIVmac251 or SIVmac239 rectally or intravenously (FIG. 9) and ART (Tenofovir [PMPA], Emtricitabine [FTC] and Dolutegravir [DTG]) was initiated between week 12 and 17 post infection. Galunisertib treatment was initiated after 26 or 27 weeks on ART for 7 or 14 days. Galunisertib powder (MedChemExpress—MCE, NJ, USA) was dissolved in water and given orally in a treat twice daily at 5 mg/kg or 10 mg/kg (FIG. 9). Blood viral load was monitored biweekly before and during cART and every 3-4 days during 438 Galunisertib treatment. Colorectal biopsies and LN FNA were collected before and after galunisertib treatment.
# Blood was collected in EDTA tubes and plasma was separated by density gradient centrifugation and used for the determination of plasma VL by SIVgag qRT-PCR at NIRC or at Leidos (Quantitative Molecular Diagnostics Core, AIDS and Cancer Virus Program Frederick National Laboratory). Tissue VL from snap frozen colorectal biopsies and LN FNA were performed at Leidos (A14X004, A14X005 and A14X013) as described in (78) or, for the remaining macaques and from PBMC of all macaques they were performed as described in (77).
smiles,measurement,setting,value
"Cc1cccc(-c2nn3c(c2-c2ccnc4ccc(C(N)=O)cc24)CCC3)n1 [galunisertib, Galunisertib]",PMA-induced frequency of p24-gag+ cells,[1],did not alter
same,proliferation marker Ki67 in NK cells,[2]; AC1 vs BC1,initial increase
same,T-Bet in CD8+ T cells,[2]; BC2 vs BC1,significant decrease
same,systemic immune activation,"[2]; Example 5, end of 1st cycle, PBMC RNAseq, CD69 and CD38 on T cells",did non induce systemic immune activation
same,"effector phenotype in T cells (CD95, CD62L)","[2]; Example 5, preliminary data",increased expression of CD95
same,TCF1 expression in CD4+ T cells,"[2]; PBMC, throughout treatment",profound consistent decrease
same,expression of CD95 in CD4+ T cells,"[2]; PBMC, throughout treatment",substantial increase
same,CD62L in CD4+ T cells,"[2]; after the first cycle, reverted to baseline later",small decrease
same,"expression of activation markers CD69, HLA-DR and Ki67 in CD4+ T cells",[2]; exception: HLA-DR increase at beginning of cycle 2,remained mostly unchanged
same,CCR7 expression in memory CD8+ T cells,"[2]; rhesus monkey, in vivo",sustained significant increase
same,CD16 expression within NKG2A+CD8+ NK cells,"[2]; rhesus monkey, in vivo",pronounced increase
same,CD95 expression in CD8+ T cells,"[2]; rhesus monkey, in vivo",No significant increase
same,TCF1 downregulation in CD8+ T cells,"[2]; rhesus monkey, in vivo",reached significance only at the end of the treatment
same,expression of CCR7 or CD28 within CD95+CD4+ T cells,"[2]; rhesus monkey, in vivo",no change
same,expression of PD1 on CD4+ and CD8+ T cells,"[2]; rhesus monkey, in vivo",either did not change or was slightly downregulated
same,frequency of naïve (CD95−) cells within CD4+ T cells,"[2]; rhesus monkey, in vivo",decreased
same,gut homing receptor integrin α4β7 in CD4+ T cells,"[2]; rhesus monkey, in vivo",downregulation
same,levels of T-bet in CD4+ T cells,"[2]; rhesus monkey, in vivo",did not change significantly
same,levels of granzyme B in CD4+ T cells,"[2]; rhesus monkey, in vivo",decrease
same,macaques with increase in pVL over 100 copies/ml,"[3]; 5 or 10 mg/kg orally twice per day, 1 or 2 weeks",2 of the 7
same,increase in pVL in macaque not continuously suppressed before treatment,[3]; single macaque (A14X),> 2 Log
